Laboratory results: patent publication US20240300980A1, “HETEROCYCLIC COMPOUNDS AS KRAS INHIBITOR, AND PREPARATION THEREFOR AND USE THEREOF IN TREATMENT” (SHANGHAI KECHOW PHARMA, INC., priority 2021, published 2024)

test system: AGS cells (KRAS^G12D); assay: Detection of cell proliferation in vitro by MTT/MTS method (cell activity experiment); assay type: cell-based; conditions: Homo sapiens, AGS, 72 h, AGS cells; MTT/MTS; 3 days of drug treatment; read-out: AGS IC50
Method in brief: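 After 3-day compound exposure (final DMSO 0.5%), viability of AGS (KRAS G12D) cells, plated 1000/well one day before dosing, was measured at 490 nm following 4 h MTT or MTS incubation. IC50 was fitted from dose–effect curves relative to DMSO-treated wells.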

First: C#Cc1c(F)ccc2cc(O)cc(-c3ccc4c(N5CC6CCCC(C5)N6)nc(OC[C@@]56CCCN5C[C@H](F)C6)nc4c3F)c12 [Example 105, 4-(4-(3,9-diazabicyclo [3.3.1]nonan-3-yl)-8-fluoro-2-(((2R,7aS)-2-fluorotetrahydro-1H-pyrrolizin-7a(5H)-yl)methoxy)quinazolin-7-yl)-5-ethynyl-6-fluoronaphthalen-2-ol]
Second: O=S1(=O)[C@@H]2CC[C@H]1CN(c1nc(OC[C@@]34CCCN3C[C@H](F)C4)nc3c(F)c(-c4cc(O)cc5ccc(F)c(F)c45)ccc13)C2 [Example 166, (1R,5S)-3-(7-(7,8-difluoro-3-hydroxynaphthalen-1-yl)-8-fluoro-2-(((2R,7aS)-2-fluorotetrahydro-1H-pyrrolizin-7a(5H)-yl)methoxy)quinazolin-4-yl)-8-thia-3-azabicyclo[3.2.1]octane 8,8-dioxide]
The IC50 of the first is lower: 0.08 µM for the first, greater than 2.5 µM for the second. The first is the more potent here.

Compared with `CCC1CCCc2cc(O)cc(-c3ccc4c(N5C[C@H]6CC[C@@H](C5)N6)nc(OC[C@@]56CCCN5C[C@H](F)C6)nc4c3F)c21` (stereo partly drawn) [Example 289, 4-(4-((1R,5S)-3,8-diazabicyclo[3.2.1]octan-3-yl)-8-fluoro-2-(((2R,7aS)-2-fluorotetrahydro-1H-pyrrolizin-7a(5H)-yl)methoxy)quinazolin-7-yl)-5-ethyl-5,6,7,8-tetrahydronaphthalen-2-ol], `C#Cc1c(F)ccc2cc(O)cc(-c3cc4nc(OC[C@@]56CCCN5C[C@H](F)C6)nc(N5C[C@H]6CC[C@@H](C5)N6)c4c4ncn(C)c34)c12` [Example 400, 4-(9-((1R,5S)-3,8-diazabicyclo[3.2.1]octan-3-yl)-7-(((2R,7aS)-2-fluorotetrahydro-1H-pyrrolizin-7a(5H)-yl)methoxy)-3-methyl-3H-imidazo[4,5-f]quinazolin-4-yl)-5-ethynyl-6-fluoronaphthalen-2-ol] is higher in IC50: 0.015 µM for the first, greater than 2.5 µM for the second.
